The results in this text go back to PubChem BioAssay (NCI).

Assay in all cases: NCI-60 cell line screen, 48 h
Assay [1] deals with OVCAR-3 ovarian.
Assay [2] relates to NCI-H522 lung.
For assay [3], the system named is SK-OV-3 ovarian.
Assay [4] deals with HL-60(TB) leukemia.
The subject of assay [5] is MOLT-4 leukemia.
The subject of assay [6] is SF-268 CNS.
Assay [7] concerns NCI/ADR-RES ovarian.
For assay [8], the system named is COLO 205 colon.
Assay [9] deals with PC-3 prostate.
In assay [10] the test system is OVCAR-4 ovarian.

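Cultured in 96-well plates, cells were exposed to test compound for 48 hours across five concentrations. TGI marks complete inhibition of growth.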

For `CN(C)CCCNC(=O)N/N=C/c1ccccc1`, the TGI in assay [1], in [2], in assay [3], in assay [4], in assay [5] and in [6] was above 100 µM in each case.

`N#CCCN(CCC#N)c1ccc(C(N=Nc2ccccc2)=Nc2ccc(F)cc2)cc1`: the TGI in assay [1] was above 100 µM; in [7] it was above 100 µM; in assay [2], 69.8 µM; in assay [3], above 100 µM; in assay [8], above 100 µM; in [9], above 100 µM. The TGI in assay [10], in assay [5] and in assay [6] was above 100 µM in each case.

For the compound `O=C(c1ccc([N+](=O)[O-])cc1)N1CCCC1`, the TGI in [1], in assay [7], in assay [2], in [9], in assay [10] and in [4] was above 100 µM each time. Further, the TGI in assay [5] and in assay [6] was above 100 µM in each case.

Regarding `CC[C@]12C=CCN3CCC4(c5cc([C@@]6(C(=O)OC)CC7CN(CCc8c6[nH]c6ccccc86)CC6CCCCC67)c(OC)cc5N(C)C4[C@](O)(C(=O)OC)C1OC(C)=O)[C@@H]32` (stereo not given in full), the TGI is 0.512 µM in [7]; below 0.0165 µM in assay [2]; below 0.01 µM in assay [8]; 0.393 µM in assay [9]; 18.3 µM in assay [10]; above 100 µM in assay [4]. This compound also gave a TGI in [6] of 1.47 µM.

For `CC(C)=C/C(CC(O)(C(F)(F)F)C(F)(F)F)=N\O`, the TGI in assay [7], in assay [3], in [8], in assay [10], in assay [4] and in assay [5] was above 100 µM each time. The same compound showed a TGI in assay [6] above 100 µM.

`CCOC(=O)c1c(SCc2cc(=O)[nH]c(=O)[nH]2)n(-c2ccccc2)c(=S)n(-c2ccccc2)c1=O`: the TGI in [1], in assay [7], in [8], in assay [9], in assay [5] and in assay [6] was above 100 µM in each case.

As for `Cc1cc(S(=O)(=O)N=C2Nc3cccc4cccc(c34)N2)c(S)cc1Cl`, the TGI in assay [1], in [7], in [2], in assay [8], in assay [9] and in assay [10] was above 100 µM each time. Moreover, the TGI in assay [4], in [5] and in assay [6] was above 100 µM throughout.

Regarding `C[As+](C)(c1ccc(Br)c([N+](=O)[O-])c1)c1ccc(Br)c([N+](=O)[O-])c1.O=[N+]([O-])O`, the TGI in assay [1], in [7], in assay [2], in assay [3], in assay [8] and in assay [9] was above 100 µM throughout. For the same compound, the TGI in [10], in assay [5] and in [6] was above 100 µM each time.

Consider `CC(=N/NC(=S)N(C)C)/C(=N\NC(=S)N(C)C)c1ccccc1`, for which the TGI in [1] came to 3.68 µM; in [7], 4.99 µM; in assay [2], 3.78 µM; in [3], 3.53 µM; in assay [8], 3.33 µM; in assay [9], 4.64 µM. Besides, the values for the TGI in [10], in assay [5] and in assay [6] were 3.74 µM, above 100 µM and 4.84 µM, respectively.

On to `CC(=O)/C(=N\Nc1ccc(Cl)cc1)C(C)=Nc1ccc(C)cc1`, for which the TGI in assay [1] is 84.5 µM; in assay [7], above 100 µM; in assay [2], 66.7 µM; in assay [3] it was above 100 µM; in [8] it was 43.1 µM; in assay [9], above 100 µM. The TGI in assay [10], in assay [5] and in assay [6] was above 100 µM throughout.

Take `COc1cc2c(cc1OCc1ccccc1)NC(=O)[C@@H]1CCCN1C2=O`: the TGI in assay [1], in assay [7], in assay [2], in assay [3], in [8] and in assay [9] was above 100 µM each time. For the same compound, the TGI in [10], in [5] and in [6] was above 100 µM throughout.

For the compound `CC(=O)Oc1ccn2nc(C)c(Br)c2c1`, the TGI is above 100 µM in assay [1]; above 100 µM in [7]; 97.1 µM in assay [2]; 75.5 µM in assay [8]; above 86.5 µM in [9]; above 100 µM in assay [10]. Also, the TGI in assay [4] is above 86.5 µM; in assay [5], above 100 µM; in assay [6], above 100 µM.

For the compound `Nc1c(N2CCOCC2)c(=O)nc2[nH]/c(=C\c3ccccc3O)c(=O)n12`, the TGI in assay [7], in assay [2], in [3], in assay [8], in assay [10] and in [4] was above 100 µM each time. Moreover, the TGI in [5] and in assay [6] was above 100 µM each time.

On to `CCCCNC(=O)Cn1c2ccc(Br)cc2c2nc3ccccc3nc21`, for which the TGI in [1], in [7], in [8], in assay [9], in assay [5] and in assay [6] was above 100 µM each time.

Regarding `CN1c2ccccc2C2=C(c3ccccc3)CC[C@@H](C(=O)N3C4CC5CC[C@@]4(CS3(=O)=O)C5(C)C)[C@@H]21` (stereo not given in full), the TGI in [1], in assay [7], in assay [2], in assay [3], in assay [8] and in assay [9] was above 100 µM throughout. Besides, the TGI in assay [10], in assay [5] and in assay [6] was above 100 µM each time.
